According to patent publication US9399145B2, “Nanoscale neuromodulating platform for retina neuron activation apparatus and method” (The Board of Trustees of the University of Illinois, priority 2005, dated 2016):

Legend:
α1β3(N265M)γ2 GABAARs = biological target: T1, α1β3(N265M)γ2 GABAARs (UniProt P28472+P62813, N290M); test: Two-electrode voltage clamp of α1β3(N265M)γ2 GABAAR-expressing oocytes; format: cell-based; conditions: 1 μM trans-MPC088 with 3 μM GABA (~EC2)
T1 construct: expressed in transfected cells; host or cells: Xenopus oocytes
Protocol: The activity of trans-dominant MPC088 was also tested at receptors containing the β-subunit substitution N265M, a mutation that markedly reduces the action of propofol both in vitro and in vivo (Jurd et al. (2003); Siegwart et al. (2002)). […] For each receptor type, illustrated responses are representative data obtained from a single oocyte.

[1] = Spectrophotometric and NMR analysis of photoisomerization; format: physicochemical
Protocol: UV and visible light sources of the electrophysiological apparatus were used for the spectrophotometric and NMR experiments. MPC088 samples were analyzed as DMSO solutions in a quartz cuvette (spectrophotometry) and a DMSO-d6 solution in a quartz NMR tube.
To test the stability of cis-MPC088 in darkness, a preparation of 30 μM MPC088 in oocyte Ringer solution that had been converted to predominantly cis form by a 5-min UV illumination was spectrophotometrically analyzed. The sample was subsequently kept in darkness at room temperature.
The UV-induced decrease in membrane current was analyzed by fitting a simple exponential decay function to the waveforms obtained and determining the exponential time constant (τ).

[2] = system: AMPAR/NMDAR-mediated EPSCs; test: AMPAR/NMDAR-mediated EPSCs in hippocampal CA1 pyramidal neurons; format: cell-based, mouse
Protocol: To test whether MPC088 affects excitatory synaptic transmission, whole-cell voltage-clamp recordings were carried out in CA1 pyramidal neurons of mouse hippocampus. As in the experiments of FIG. 42, these recordings were obtained with perfusion of the slice with cis-dominant MPC088 (30 μM) under recirculation. PTX […] was also included in the external solution to block GABAARs. EPSCs were evoked by stimulating the Schaffer collaterals with a bipolar matrix microelectrode (FHC, Inc., Bowdoin, Me.), and recorded at a holding potential of +40 mV to uncover the NMDA receptor (NMDAR) component of the EPSC. Paired electrical stimuli separated by 80 ms were also presented to assess possible effects of MPC088 on short-term plasticity. Each cell was […] 20 interleaved trials in which the cell was exposed to two 0.1-s UV pulses surrounding a 1-s period of either blue light or no light (FIG. 50). […] Each trace is the average of 10 traces with stimulus and shutter artifacts blanked for clarity. The black and grey asterisks indicate the time points, respectively, for the current measurements of the AMPAR- and NMDAR-mediated components. FIG. 50b depicts summary data including that shown in a. Plotted for the blue light and no blue light conditions are the average current amplitudes measured at the peak of the first EPSC (black bars), and just prior to the second stimulus (grey bars), as indicated by the asterisks in a.
To quantify the effects of MPC088 on AMPA receptors (AMPARs) and NMDARs, for the first EPSC of the pair, the peak current and the current just prior to the second stimulus were measured, which reflect AMPAR and NMDAR components, respectively, of the EPSC^41. […] Additionally, blue light had no significant effect on the decay of the compound current (average τ from single-exponential fitting to the decay of the second EPSC: Blue off, 131±11 ms; Blue on, 131±11 ms; p=0.89). There was also no significant effect of blue light on the paired-pulse ratio (PPR, measured as Peak(2nd EPSC)/Peak(1st EPSC): Blue off, 1.72±0.07; Blue on, 1.85±0.14; p=0.34).
Recordings from hippocampal CA1 pyramidal neurons were obtained from 17-23 day old animals. Briefly, the hippocampus was completely removed from the brain and then sliced in 300-μm sections. Prior to recording, a cut was made with a scalpel blade between CA1 and CA3 in order to completely sever all connections between the two; this was done in order to abolish polysynaptic activity due to antidromic activation of CA3 pyramidal cells. Recordings were carried out under voltage clamp with an internal solution containing (in mM): 130 CsCl, 10 HEPES, 1 CaCl2, 2 ATP, 0.2 GTP, 10 EGTA, and 5 QX-314 Br, and pH was adjusted to 7.3 with CsOH. All data from these experiments are presented as mean±SEM.

α4β3δ GABAAR = biological target: T2, α4β3δ GABAAR (Homo sapiens, UniProt P28472+P48169); test: Two-electrode voltage clamp of α4β3δ GABAAR-expressing oocytes; format: cell-based
T2 construct: expressed in transfected cells; host or cells: Xenopus oocytes
Source text: Propofol is known to modulate GABAA receptors that contain a β subunit. […] Data in each group was obtained from 4 oocytes.

[3] = biological target: T3, GABAAR subtype that consists of a pentameric assembly of p1 subunits (Homo sapiens, UniProt P24046); test: Oocytes expressing the GABAAR subtype of p1 subunits; format: cell-based
T3 construct: expressed in transfected cells; host or cells: Xenopus oocytes

[4] = 2.0 mM in DMSO-d6, before illumination
[5] = after UV illumination for 5 min
[6] = after UV, then visible light for 10 min

CC(C)c1cc(CCCC(=O)NCc2ccc(/N=N/c3ccc(C(=O)NCCN)cc3)cc2)cc(C(C)C)c1O [MPC088, (E)-N-(2-Aminoethyl)-4-((4-((4-(4-hydroxy-3,5-diisopropylphenyl)butanamido)methyl)phenyl)diazenyl)benzamide]
response enhancement (α1β3(N265M)γ2 GABAARs): 2.9±0.8 fold
cis-isomer content (1H NMR) [1, 4]: 6%
trans-isomer content (1H NMR) [1, 4]: 94%
time constant of absorbance change at 338 nm ([1]; UV light, nominal intensity): 1.7 ± 0.3 s
cis-isomer content (1H NMR) [1, 5]: 91%
trans-isomer content (1H NMR) [1, 5]: 9%
cis-isomer content (1H NMR) [1, 6]: 19%
trans-isomer content (1H NMR) [1, 6]: 81%
time constant of absorbance change at 338 nm ([1]; reduced-intensity UV light (10% of nominal)): 22 ± 3 s
time constant of absorbance change at 338 nm ([1]; visible light): 36 ± 2 s
actions on AMPAR-mediated and NMDAR-mediated EPSCs ([2]; 30 μM): negligible actions on AMPAR-mediated and NMDAR-mediated EPSCs
average τ of decay of the second EPSC ([2]; 30 μM MPC088, Blue off): 131 ± 11 ms
paired-pulse ratio (PPR) ([2]; 30 μM MPC088, Blue off): 1.72±0.07
average τ of decay of the second EPSC ([2]; 30 μM MPC088, Blue on): 131 ± 11 ms
paired-pulse ratio (PPR) ([2]; 30 μM MPC088, Blue on): 1.85±0.14
plateau of response function relative to response with high GABA concentration (α4β3δ GABAAR; co-applied 50 nM GABA (~EC8)): ~42%
direct agonist activity (α4β3δ GABAAR; compound alone): much lower than those at α1β3γ2 and α1β2γ2
potentiating and direct agonist activity [3]: lacked both potentiating and direct agonist activity
